# Reference: patent publication US10172951B2, “Dendrimer based nanodevices for therapeutic and imaging purposes” (priority 2009, dated 2019)
# Entries after “also recorded” stand apart in the source; their conditions may differ.
# Key:
# BV-2 cells [1] = assay: ROS assay (H2O2, Amplex Red), PEG-NAC conjugates; type: cell-based, mouse; settings: highest concentration 5 mM
# Protocol: (§1) (A) BV-2 cells (passage 22) were co-treated with 100 ng/mL of LPS and the indicated concentration of NAC, PEG-NAC conjugate 1 and its corresponding PEG for 72 hours. (B) BV-2 cells were co-treated with 100 ng/mL of LPS and the indicated concentration of NAC, PEG-NAC conjugate 2 and its corresponding PEG for 72 hours. The amount of ROS released into the media was measured using Amplex Red.
# (§2) H2O2 released from BV-2 cells was measured using 10-acetyl-3,7-dihydroxyphenoxazine (Amplex Red), following the manufacturer's instructions. Briefly, the procedure for cell culture and drug treatment was the same as described in previous section. The supernatant was mixed with 0.05 U/mL of horseradish peroxidase and 1 μM of Amplex Red in 96-well plates. After 30 min incubation, the fluorescence intensity was measured using spectrofluorometry. Excitation and emission wavelengths were 530 nm and 590 nm.
# BV-2 cells [2] = assay: NO release assay (nitrite, Griess), PEG-NAC conjugates; type: cell-based, mouse; settings: highest concentration 5 mM
# Protocol: as §1, with “2” for “2 and”, “Nitrite in culture medium” for “The amount of ROS released into the media”, “Griess reagent system.” for “Amplex Red.”
# Production of NO was assayed by measuring the levels of nitrite, the stable NO metabolite, in supernatant. Accumulation of nitrite in supernatant was determined by colorimetric assay with Griess reagent system, which uses sulfanilamide and N-(1-Naphthyl)-ethylene diamine. 100 μL of the supernatant was incubated with 50 μL of Griess reagent 1 (sulfanilamide) and 50 μL of Griess reagent 2 N-(1-Naphthyl)-ethylenediamine for 10 min at room temperature. The absorbance at 540 nm was then measured, and nitrite concentration was determined using a curve calibrated with nitrite standards.
# BV-2 cells [3] = assay: ROS assay in LPS-activated BV-2 cells, 3 hours pre-treatment (Example 18); type: cell-based, mouse; settings: for H2O2 reduction (%): 72 hours LPS following 3 hours treatment; for effect on ROS production: 24 hours LPS following 3 hours pre-treatment, 0.5-8 mM
# Protocol: (§3) BV-2 cells (passage 16) were seeded in 24 well plates at 10^5/mL/well and incubated for 24 hours. The medium was removed, and the cells were exposed to 100 ng/mL of LPS and varying concentrations of PAMAM-(COOH)46-(NAC)18 conjugate in 500 μL of serum free medium for 3 hours. The medium was removed again, and 500 μL of fresh serum free medium containing 100 ng/mL of LPS was added and incubated for 24 hours and 72 hours. Control treatment with varying concentrations of free NAC, positive control with 100 ng/mL of LPS induction, but negative control without any LPS induction and treatment were also studied. The culture medium was collected at specific time intervals of 24 hours and 72 hours, and spun at 1500 rpm for 5 min. The supernatant was stored at −80° C. for further assays.
# as §2, with “instructions (Alexandre et al., 2006; Min et al., 2003). The” for “instructions. Briefly, the”, “nm respectively.” for “nm.”
# BV-2 cells [4] = assay: NO release (nitrite) assay in LPS-activated BV-2 cells (Example 18); type: cell-based, mouse; settings: for Nitrite reduction (%): 72 hours LPS following 3 hours treatment; for reduction of nitrite release: 24 hours LPS following 3 hours pre-treatment
# Protocol: as §3
# Production of NO was assayed by measuring the levels of nitrite, the stable NO metabolite, in the culture medium. Accumulation of nitrite in the medium was determined by colorimetric assay with Griess reagent system, which uses sulfanilamide and N-(1-Naphthyl)-ethylene diamine. From the treated cells in the medium, 100 μL of the supernatant was incubated with 50 μL of Griess reagent 1 (sulfanilamide) and 50 μL of Griess reagent 2 N-(1-Naphthyl)-ethylenediamine for 10 min at room temperature. The absorbance at 540 nm was then measured, and nitrite concentration was determined using a calibration curve prepared using nitrite standards.
# BV-2 cells [5] = assay: TNF-α ELISA in LPS-activated BV-2 cells (Example 18); type: cell-based, mouse; settings: 72 hours LPS following 3 hours treatment
# Protocol: as §3
# The procedure for cell culture and drug treatment was the same as described in previous section. TNF-α secretion was measured using an ELISA kit according to the manufacturer's instructions. In brief, 50 μL of supernatant from each sample was added in 96-well ELISA plates. Biotinylated antibody reagent was applied to each well and the plate was incubated at room temperature for 2 hours. After washing the plate with PBS-Tween 20, diluted streptavidin-HRP was added, and the plate was incubated at room temperature for 30 min. After washing the plate, the premixed TMB substrate solution was added. The plate was developed in the dark for 30 min, and read at 450 nm using a microplate reader. The concentration of TNF-α was calculated using murine rTNF-α as standard.
# microglial cells = assay: Cytotoxicity assay in microglial cells (Example 18); type: cell-based, mouse; settings: concentrations tested in vitro
# [6] = system: Mouse microglial cell line (BV-2); assay: In vitro cytotoxicity, MTT assay (Example 19); settings: 0.5, 2 and 8 mM
# Excerpt: In vitro cytotoxicity of the conjugate, dendrimer and NAC, at conditions similar to that used in the efficacy assays, was investigated by MTT assay. Mouse microglial cell line (BV-2) was obtained from Children's Hospital of Michigan Cell Culture Facility. These cells were used because the eventual in vivo applications seek to target microglial cells that become activated as a result of neuroinflammation.
# The lipopolysaccharide (LPS) was used to activate the cells for the ROS assay. For the cytotoxicity study, the LPS treatment was continuous for 24 hours. For both groups, the LPS concentration used was 100 ng/ml. Three concentrations of NAC were studied: 0.5 mM, 2 mM and 8 mM. For the conjugate assays, the concentrations used corresponded to equivalent NAC doses of the free drug treatment groups. Similarly, the dendrimer assays were run by using dendrimer concentrations that were equivalent to conjugate treatments. Control groups included cells receiving only LPS and no other treatment and cells with no LPS or other treatment. The proportion of viable cells in the treated group was compared to that of negative control. The cell viability is expressed as mean±SD of three samples per group, and assessed by t-test.
# BV-2 cells [7] = assay: ROS assay, percent reduction in H2O2 in LPS-treated BV-2 cells (Example 19); type: cell-based, mouse; settings: co-treatment with LPS
# Protocol: Cells were treated with lipopolysaccharide (LPS) to induce the production of ROS. The cells were treated with LPS (100 ng/ml) and either NAC, PAMAM-S—S-NAC, or free PAMAM-NH2 dendrimers at appropriate concentrations to study the efficacy of the conjugates for reducing the ROS concentrations. In order to quantify the efficacy of conjugates, H2O2 released from BV-2 cells (ROS) was measured using the Amplex Red Hydrogen Peroxide/Peroxidase Assay Kit using previously established procedures.
# [8] = Stability (oxidation) of free NAC and free GSH in PBS; type: physicochemical; settings: over 17 hours
# Protocol: (§4) The conjugates were also analyzed in the absence of GSH to verify the stability of the disulfide linkage at physiological pH. […] The extent of the release of drug from both dendrimer-NAC conjugates was also analyzed at plasma and intracellular GSH concentrations. The conjugates and the GSH in required amounts were added to PBS solution, and the solution was analyzed at various time intervals by HPLC for up to 17 hours. UV absorbance peak areas were used to determine the concentrations of each of the species in the solution, based on appropriate calibration curves.
# [9] = cited from earlier work
# [10] = cited from earlier work; remark: listed apart in the source
# [11] = GSH triggered NAC release from PAMAM dendrimer-NAC conjugates (RP-HPLC); type: physicochemical
# Protocol: Appropriate amounts of PAMAM-S—S-NAC conjugate were dissolved in release media (Citrate or PBS buffers) to form a solution of 1 mg/ml PAMAM-S—S-NAC. One of the thiol containing molecules (GSH, Cys or BSA) was added to the conjugates to form 10 mM, 2 mM, 0.5 mM 0.1 mM or 2 μM overall thiol group concentrations and to initiate the release of NAC. All samples were run as triplicates for statistical analysis.
# As control samples, conjugates were analyzed in both release media in the absence of reducing agents. The solutions were kept at 37° C. and stirred continuously. At predetermined time intervals, […] of samples were withdrawn and immediately analyzed with RP-HPLC and the concentrations of analytes were determined by using appropriate calibrations prepared under same conditions.
# Dendrimer NAC conjugates were analyzed for their drug release mechanism and kinetics in the presence of GSH, Cys and BSA. Buffer solutions with pH 5 (Citrate Buffer) and pH 7.4 (Phosphate Buffered Saline) containing various concentrations of these thiol containing moieties were used in release studies.
# All GSH concentrations studied were between average plasma (2 μM) and intracellular (2-10 mM) GSH levels. Various GSH concentrations were used in order to determine the GSH dependent release kinetics of the conjugate. The conjugate solutions contained 730 μM NAC in the conjugated form (1 mg/ml PAMAM-S—S-NAC) at the beginning of the release studies. GSH concentration in the release media was compared to the conjugated NAC concentrations in the release solutions for analysis of the release kinetics and mechanism.
# The release of NAC from the conjugates was investigated in the presence of GSH at intracellular and extracellular concentrations. It was assumed that the release of NAC would occur by the disulfide exchange reaction. GSH and its oxidized form (GSSG) are responsible for forming the intracellular redox buffer. Intracellularly, GSH takes the role of attacking thiolate moiety and gets oxidized in the process while cleaving the existing disulfide bonds.
# as §4
# Solubility in PBS/H2O = type: physicochemical
# [12] = GSH triggered NAC release from PAMAM dendrimer-NAC conjugates (RP-HPLC); type: physicochemical; settings: absence of GSH, or GSH levels in the blood (20 μM)
# [13] = 10 mM GSH, PBS pH 7.4, within 1 hour
molecule,measurement,setting,value
"CC(=O)N[C@@H](CS)C(=O)O [NAC, N-acetyl-L-cysteine, reference compound]",reduction of H2O2 levels,BV-2 cells [1],30-40%
same,reduction of nitrite levels,BV-2 cells [2],30-40%
same,H2O2 reduction (%),BV-2 cells [3]; 0.5 mM,5.54 ± 6.38%
same,H2O2 reduction (%),BV-2 cells [3]; 2 mM,22.28 ± 8.33%
same,H2O2 reduction (%),BV-2 cells [3]; 8 mM,41.31 ± 2.33%
same,effect on ROS production,BV-2 cells [3],did not affect ROS production
same,Nitrite reduction (%),BV-2 cells [4]; 0.5 mM,10.52 ± 6.43%
same,Nitrite reduction (%),BV-2 cells [4]; 2 mM,34.66 ± 3.22%
same,reduction of nitrite release,BV-2 cells [4]; 8 mM,~70%
same,Nitrite reduction (%),BV-2 cells [4]; 8 mM,72.70 ± 5.56%
same,TNF-α reduction (%),BV-2 cells [5]; 0.5 mM,34.98 ± 2.43%
same,TNF-α reduction (%),BV-2 cells [5]; 2 mM,35.13 ± 4.44%
same,TNF-α reduction (%),BV-2 cells [5]; 8 mM,44.57 ± 4.35%
same,cytotoxicity,microglial cells,relatively nontoxic
same,cytotoxicity,[6],no cytotoxicity
same,reduction in H2O2 levels,"BV-2 cells [7]; 0.5 mM NAC (equivalent), 24 hours",6%
same,reduction in H2O2 levels,"BV-2 cells [7]; 0.5 mM NAC (equivalent), 72 hours",7%
same,reduction in H2O2 levels,"BV-2 cells [7]; 8 mM, 24 hours",57%
same,reduction in H2O2 levels,"BV-2 cells [7]; 8 mM, 72 hours",125%
same,converted to oxidized form,[8],25%
same,biological half-life,[9]; in the blood stream,1.5 hours
same,bioavailability,[9]; reduced by binding to plasma proteins,less than 8%
"N[C@@H](CCC(=O)N[C@@H](CS)C(=O)NCC(=O)O)C(=O)O [GSH, glutathione]",converted to oxidized form,[8],25%
same,pKa of thiol group,[10],~8.8
PAMAM-CO-GS—S-NAC [PAMAM-(COOH)46-(NAC)18],NAC payload in GS-S-NAC (NAC-GSH) form,[11]; [13],6%
same,NAC payload released in free form,[11]; [13],39%
same,total NAC release,[11]; [13],45%
same,NAC payload in GS-S-NAC form,"[11]; 10 mM GSH, at 17 hours",6%
same,free NAC content,"[11]; 10 mM GSH, at 17 hours",46%
same,NAC release,"[11]; PBS buffer without GSH, 17 hours",did not release any of the NAC they carried
same,NAC payload found as GS-S-NAC or NAC-NAC,[11]; plasma GSH concentration (2 μM),1%
same,release of free NAC,"[11]; plasma GSH concentration (2 μM), 17 hours",did not release any detectable levels of free NAC
same,H2O2 reduction (%),BV-2 cells [3]; 0.5 mM,25%
same,H2O2 reduction (%),"BV-2 cells [3]; 0.5 mM, listed as D-NAC",30.81 ± 8.08%
same,H2O2 reduction (%),BV-2 cells [3]; 2 mM,51.13 ± 4.93%
same,H2O2 reduction (%),BV-2 cells [3]; 8 mM,68%
same,H2O2 reduction (%),"BV-2 cells [3]; 8 mM, listed as D-NAC",68.75 ± 4.14%
same,effect on ROS production,BV-2 cells [3],significant inhibition of ROS production at 2 mM and 8 mM
same,reduction of nitrite release,BV-2 cells [4]; 0.5 mM NAC equivalent,~61%
same,Nitrite reduction (%),BV-2 cells [4]; 0.5 mM,~60%
same,Nitrite reduction (%),"BV-2 cells [4]; 0.5 mM, listed as D-NAC",60.82 ± 6.05%
same,Nitrite reduction (%),BV-2 cells [4]; 2 mM,64.85 ± 5.12%
same,Nitrite reduction (%),BV-2 cells [4]; 8 mM,75.75 ± 1.85%
same,free drug dosage with comparable activity relative to conjugate dose (8 mM vs 0.5 mM),BV-2 cells [4]; lowest conjugate dose 0.5 mM NAC,16 ×
same,TNF-α reduction (%),BV-2 cells [5]; 0.5 mM,~67%
same,TNF-α reduction (%),"BV-2 cells [5]; 0.5 mM, listed as D-NAC",67.46 ± 3.91%
same,TNF-α reduction (%),BV-2 cells [5]; 2 mM,74.43 ± 3.54%
same,TNF-α reduction (%),BV-2 cells [5]; 8 mM,77.37 ± 3.31%
same,cytotoxicity,microglial cells,relatively nontoxic; also recorded: non-toxic
same,Solubility in PBS/H2O,Solubility in PBS/H2O,Highly
same,drug release,[12],no drug release
